Test results from the kinase profiling compilation of Christmann-Franck et al. (2016).

Legend:
Test in all cases: KINOMEscan competition binding
Conditions in all cases: compound 10.0 µM
PAK6 (human) = PAK6 (human) (UniProt Q9NQU5)
CAMK4 (human) = CAMK4 (human) (UniProt Q16566)
PIM2 (human) = PIM2 (human) (UniProt Q9P1W9)
FES (human) = FES (human) (UniProt P07332)
MAP4K4 (human) = MAP4K4 (human) (UniProt O95819)
NUAK2 (human) = NUAK2 (human) (UniProt Q9H093)
CLK4 (human) = CLK4 (human) (UniProt Q9HAZ1)
NEK2 (human) = NEK2 (human) (UniProt P51955)
TAOK3 (human) = TAOK3 (human) (UniProt Q9H2K8)
TGFBR1 (human) = TGFBR1 (human) (UniProt P36897)
NLK (human) = NLK (human) (UniProt Q9UBE8)
FER (human) = FER (human) (UniProt P16591)
STK10 (human) = STK10 (human) (UniProt O94804)
PKN2 (human) = PKN2 (human) (UniProt Q16513)
ULK1 (human) = ULK1 (human) (UniProt O75385)
Sequence of ULK1 (human) (O75385 whole entry, looked up): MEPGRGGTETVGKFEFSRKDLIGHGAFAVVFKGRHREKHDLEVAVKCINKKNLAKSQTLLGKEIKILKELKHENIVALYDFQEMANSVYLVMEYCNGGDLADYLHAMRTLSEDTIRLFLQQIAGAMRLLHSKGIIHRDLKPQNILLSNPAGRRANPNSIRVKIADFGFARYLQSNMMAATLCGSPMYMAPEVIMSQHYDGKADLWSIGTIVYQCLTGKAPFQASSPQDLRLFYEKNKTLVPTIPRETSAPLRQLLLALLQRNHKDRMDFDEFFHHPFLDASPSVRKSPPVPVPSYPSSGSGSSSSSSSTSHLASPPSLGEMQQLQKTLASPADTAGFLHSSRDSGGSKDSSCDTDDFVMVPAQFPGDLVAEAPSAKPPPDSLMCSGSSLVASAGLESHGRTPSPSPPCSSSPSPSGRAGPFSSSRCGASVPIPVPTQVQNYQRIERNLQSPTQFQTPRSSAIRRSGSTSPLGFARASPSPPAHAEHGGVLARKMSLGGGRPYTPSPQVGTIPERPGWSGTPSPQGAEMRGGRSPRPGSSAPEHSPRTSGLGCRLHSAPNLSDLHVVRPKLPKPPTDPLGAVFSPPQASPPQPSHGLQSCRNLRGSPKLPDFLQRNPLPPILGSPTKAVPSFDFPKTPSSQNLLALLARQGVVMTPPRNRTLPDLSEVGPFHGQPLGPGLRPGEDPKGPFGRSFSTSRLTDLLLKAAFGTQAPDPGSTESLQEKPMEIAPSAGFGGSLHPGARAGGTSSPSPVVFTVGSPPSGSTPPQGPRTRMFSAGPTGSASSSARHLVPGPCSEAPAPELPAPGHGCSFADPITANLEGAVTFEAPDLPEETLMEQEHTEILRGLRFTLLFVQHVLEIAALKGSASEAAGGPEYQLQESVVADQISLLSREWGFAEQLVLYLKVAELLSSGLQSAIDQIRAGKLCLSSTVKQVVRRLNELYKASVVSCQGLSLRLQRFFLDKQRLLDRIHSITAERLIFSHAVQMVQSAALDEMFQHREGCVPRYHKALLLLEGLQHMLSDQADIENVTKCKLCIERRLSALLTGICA

RPS6KA1 KD1 (human) = RPS6KA1 KD1 (human) (UniProt Q15418)
EPHA2 (human) = EPHA2 (human) (UniProt P29317)
PDGFRA (human) = PDGFRA (human) (UniProt P16234)
BMPR1B (human) = BMPR1B (human) (UniProt O00238)
DDR2 (human) = DDR2 (human) (UniProt Q16832)
CAMKK1 (human) = CAMKK1 (human) (UniProt Q8N5S9)
MAP2K3 (human) = MAP2K3 (human) (UniProt P46734)
MAP2K5 (human) = MAP2K5 (human) (UniProt Q13163)
Sequence of MAP2K5 (human) (Q13163 whole entry, looked up): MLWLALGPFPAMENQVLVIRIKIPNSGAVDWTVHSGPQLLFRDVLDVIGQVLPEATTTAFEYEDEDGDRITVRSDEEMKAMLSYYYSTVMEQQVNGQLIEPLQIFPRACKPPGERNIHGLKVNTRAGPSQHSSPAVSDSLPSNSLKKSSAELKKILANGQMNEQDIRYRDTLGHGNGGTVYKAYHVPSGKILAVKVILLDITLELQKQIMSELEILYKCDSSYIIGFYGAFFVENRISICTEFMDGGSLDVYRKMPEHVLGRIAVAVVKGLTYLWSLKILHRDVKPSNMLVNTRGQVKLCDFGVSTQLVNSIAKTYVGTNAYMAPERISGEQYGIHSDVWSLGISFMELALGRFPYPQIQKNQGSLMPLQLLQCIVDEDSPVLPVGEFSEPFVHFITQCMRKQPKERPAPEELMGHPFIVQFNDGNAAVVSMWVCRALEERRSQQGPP

RPS6KA6 KD1 (human) = RPS6KA6 KD1 (human) (UniProt Q9UK32)
PHKG1 (human) = PHKG1 (human) (UniProt Q16816)
PIK3C2G (human) = PIK3C2G (human) (UniProt O75747)
MAK (human) = MAK (human) (UniProt P20794)
Sequence of MAK (human) (P20794 whole entry, looked up): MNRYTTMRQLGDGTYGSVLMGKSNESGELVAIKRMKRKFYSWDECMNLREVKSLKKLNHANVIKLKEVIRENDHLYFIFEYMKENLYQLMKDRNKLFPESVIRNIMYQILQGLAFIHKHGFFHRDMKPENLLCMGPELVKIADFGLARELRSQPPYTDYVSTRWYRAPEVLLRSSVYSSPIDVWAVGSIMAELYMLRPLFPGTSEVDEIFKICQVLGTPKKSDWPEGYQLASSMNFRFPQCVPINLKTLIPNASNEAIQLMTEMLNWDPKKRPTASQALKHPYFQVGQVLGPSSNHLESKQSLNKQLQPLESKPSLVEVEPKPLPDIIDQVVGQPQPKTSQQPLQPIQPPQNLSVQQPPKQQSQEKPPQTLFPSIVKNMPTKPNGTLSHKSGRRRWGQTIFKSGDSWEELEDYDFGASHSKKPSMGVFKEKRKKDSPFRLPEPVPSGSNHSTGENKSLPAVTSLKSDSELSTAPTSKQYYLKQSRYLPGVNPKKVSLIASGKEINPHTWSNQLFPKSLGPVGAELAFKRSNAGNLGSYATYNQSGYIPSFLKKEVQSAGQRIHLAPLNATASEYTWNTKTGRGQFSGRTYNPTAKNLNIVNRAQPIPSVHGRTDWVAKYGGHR

MET (human) = MET (human) (UniProt P08581)
ACVR1B (human) = ACVR1B (human) (UniProt P36896)
Sequence of ACVR1B (human) (P36896 whole entry, looked up): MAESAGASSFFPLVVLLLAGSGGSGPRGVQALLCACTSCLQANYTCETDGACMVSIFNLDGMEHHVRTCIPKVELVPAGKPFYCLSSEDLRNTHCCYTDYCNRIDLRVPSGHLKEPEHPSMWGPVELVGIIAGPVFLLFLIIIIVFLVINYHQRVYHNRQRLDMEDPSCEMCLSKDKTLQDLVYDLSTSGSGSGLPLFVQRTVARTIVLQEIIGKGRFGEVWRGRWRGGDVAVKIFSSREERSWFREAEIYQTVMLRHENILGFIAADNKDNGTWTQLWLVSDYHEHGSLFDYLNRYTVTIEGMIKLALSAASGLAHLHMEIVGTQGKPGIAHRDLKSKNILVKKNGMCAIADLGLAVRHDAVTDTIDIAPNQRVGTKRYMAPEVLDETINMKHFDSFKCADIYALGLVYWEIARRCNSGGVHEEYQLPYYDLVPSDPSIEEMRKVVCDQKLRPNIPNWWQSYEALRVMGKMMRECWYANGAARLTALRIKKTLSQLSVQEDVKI

FGFR2 (human) = FGFR2 (human) (UniProt P21802)
BMPR1A (human) = BMPR1A (human) (UniProt P36894)
BRSK1 (human) = BRSK1 (human) (UniProt Q8TDC3)
MAPK7 (human) = MAPK7 (human) (UniProt Q13164)
IGF1R (human) = IGF1R (human) (UniProt P08069)
DAPK3 (human) = DAPK3 (human) (UniProt O43293)
PKN3 (M.tuberculosis) = PKN3 (M.tuberculosis) (UniProt Q6P5Z2)
RIOK1 (human) = RIOK1 (human) (UniProt Q9BRS2)
MAPK14 (human) = MAPK14 (human) (UniProt Q16539)
FLT4 (human) = FLT4 (human) (UniProt P35916)
RET (human) = RET (human) (UniProt P07949)

Sequence of MAP4K4 (human) (O95819 whole entry, looked up): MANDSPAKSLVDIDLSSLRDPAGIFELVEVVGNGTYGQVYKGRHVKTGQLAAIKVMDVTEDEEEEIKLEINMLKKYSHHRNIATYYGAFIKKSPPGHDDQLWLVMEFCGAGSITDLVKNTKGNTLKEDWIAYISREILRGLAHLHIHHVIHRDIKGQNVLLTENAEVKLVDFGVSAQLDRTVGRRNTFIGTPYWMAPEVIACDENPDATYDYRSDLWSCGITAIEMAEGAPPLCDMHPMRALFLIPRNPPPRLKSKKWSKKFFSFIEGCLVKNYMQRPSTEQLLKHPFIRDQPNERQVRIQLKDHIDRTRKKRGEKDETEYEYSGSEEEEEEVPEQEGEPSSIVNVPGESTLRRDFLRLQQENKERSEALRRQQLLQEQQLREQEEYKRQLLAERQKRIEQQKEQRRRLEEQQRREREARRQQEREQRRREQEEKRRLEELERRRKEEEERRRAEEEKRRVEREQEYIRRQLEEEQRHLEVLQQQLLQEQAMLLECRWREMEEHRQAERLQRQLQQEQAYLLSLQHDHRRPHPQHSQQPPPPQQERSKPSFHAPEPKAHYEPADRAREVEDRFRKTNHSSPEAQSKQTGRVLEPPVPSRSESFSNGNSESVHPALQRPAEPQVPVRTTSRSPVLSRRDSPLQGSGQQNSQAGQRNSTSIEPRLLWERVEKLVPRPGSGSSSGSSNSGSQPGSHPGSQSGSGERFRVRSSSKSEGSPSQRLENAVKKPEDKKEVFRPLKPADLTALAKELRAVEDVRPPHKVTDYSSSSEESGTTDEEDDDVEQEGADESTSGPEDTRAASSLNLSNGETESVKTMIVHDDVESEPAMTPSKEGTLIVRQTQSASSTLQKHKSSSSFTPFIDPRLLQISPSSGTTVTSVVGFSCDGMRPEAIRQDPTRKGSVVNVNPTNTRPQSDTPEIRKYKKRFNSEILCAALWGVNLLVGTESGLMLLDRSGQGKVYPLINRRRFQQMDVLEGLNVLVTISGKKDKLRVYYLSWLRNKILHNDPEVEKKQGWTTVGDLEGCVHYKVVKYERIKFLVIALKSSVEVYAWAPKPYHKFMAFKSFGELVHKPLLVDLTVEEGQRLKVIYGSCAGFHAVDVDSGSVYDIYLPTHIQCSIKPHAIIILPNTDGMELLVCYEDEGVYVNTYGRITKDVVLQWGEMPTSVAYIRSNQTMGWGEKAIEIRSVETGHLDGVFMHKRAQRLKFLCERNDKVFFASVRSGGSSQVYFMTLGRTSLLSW
Sequence of CAMK4 (human) (Q16566 whole entry, looked up): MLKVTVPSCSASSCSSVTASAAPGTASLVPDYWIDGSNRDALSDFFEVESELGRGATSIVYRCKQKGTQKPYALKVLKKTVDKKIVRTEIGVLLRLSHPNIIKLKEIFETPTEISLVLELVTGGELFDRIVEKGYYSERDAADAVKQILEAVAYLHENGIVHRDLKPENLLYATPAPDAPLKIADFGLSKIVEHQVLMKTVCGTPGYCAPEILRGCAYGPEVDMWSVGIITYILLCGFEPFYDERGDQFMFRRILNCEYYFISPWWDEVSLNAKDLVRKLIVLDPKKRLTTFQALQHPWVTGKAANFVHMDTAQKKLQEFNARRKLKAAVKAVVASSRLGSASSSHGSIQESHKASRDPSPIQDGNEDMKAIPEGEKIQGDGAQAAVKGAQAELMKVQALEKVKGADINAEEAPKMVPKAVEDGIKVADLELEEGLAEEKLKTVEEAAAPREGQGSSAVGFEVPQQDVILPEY
Sequence of NUAK2 (human) (Q9H093 whole entry, looked up): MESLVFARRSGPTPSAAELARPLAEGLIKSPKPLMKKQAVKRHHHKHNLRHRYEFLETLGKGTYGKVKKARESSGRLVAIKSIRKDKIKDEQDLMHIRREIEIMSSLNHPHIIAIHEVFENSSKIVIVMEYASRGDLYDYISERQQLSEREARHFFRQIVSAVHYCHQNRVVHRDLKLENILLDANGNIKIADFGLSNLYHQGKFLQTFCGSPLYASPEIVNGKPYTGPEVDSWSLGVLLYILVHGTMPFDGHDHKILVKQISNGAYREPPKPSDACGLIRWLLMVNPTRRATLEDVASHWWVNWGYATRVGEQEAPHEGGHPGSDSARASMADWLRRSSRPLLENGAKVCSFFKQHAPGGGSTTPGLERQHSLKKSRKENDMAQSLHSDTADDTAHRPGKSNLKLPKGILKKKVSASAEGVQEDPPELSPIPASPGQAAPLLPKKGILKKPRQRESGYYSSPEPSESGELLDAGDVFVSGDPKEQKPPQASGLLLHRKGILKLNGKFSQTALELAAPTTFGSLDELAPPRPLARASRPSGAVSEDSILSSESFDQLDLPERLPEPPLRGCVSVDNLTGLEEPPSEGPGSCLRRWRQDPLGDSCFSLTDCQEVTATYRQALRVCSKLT

| SMILES | kinase still bound, per cent of control (PAK6 (human)) [%] | kinase still bound, per cent of control (CAMK4 (human)) [%] | kinase still bound, per cent of control (PIM2 (human)) [%] | kinase still bound, per cent of control (FES (human)) [%] | kinase still bound, per cent of control (MAP4K4 (human)) [%] | kinase still bound, per cent of control (NUAK2 (human)) [%] | kinase still bound, per cent of control (CLK4 (human)) [%] | kinase still bound, per cent of control (NEK2 (human)) [%] | kinase still bound, per cent of control (TAOK3 (human)) [%] | kinase still bound, per cent of control (TGFBR1 (human)) [%] | kinase still bound, per cent of control (NLK (human)) [%] | kinase still bound, per cent of control (FER (human)) [%] | kinase still bound, per cent of control (STK10 (human)) [%] | kinase still bound, per cent of control (PKN2 (human)) [%] | kinase still bound, per cent of control (ULK1 (human)) [%] | kinase still bound, per cent of control (RPS6KA1 KD1 (human)) [%] | kinase still bound, per cent of control (EPHA2 (human)) [%] | kinase still bound, per cent of control (PDGFRA (human)) [%] | kinase still bound, per cent of control (BMPR1B (human)) [%] | kinase still bound, per cent of control (DDR2 (human)) [%] | further results |
| --- | --- | --- | --- | --- | --- | --- | --- | --- | --- | --- | --- | --- | --- | --- | --- | --- | --- | --- | --- | --- | --- |
| COc1cc2ncnc(-n3nc(-c4ccccn4)nc3N)c2cc1OC | 55 | 100 | 78 | 99 | 69 | 37 | 2.2 | 57 | 39 | 14 | 6.6 | 93 | 12 | 79 | 6.6 | 33 | 27 | 57 | 14 | 22 | kinase still bound, per cent of control (CAMKK1 (human)): 17%; kinase still bound, per cent of control (MAP2K3 (human)): 27%; kinase still bound, per cent of control (MAP2K5 (human)): 1.1%; kinase still bound, per cent of control (RPS6KA6 KD1 (human)): 20%; kinase still bound, per cent of control (PHKG1 (human)): 55%; kinase still bound, per cent of control (PIK3C2G (human)): 8.2%; kinase still bound, per cent of control (MAK (human)): 100%; kinase still bound, per cent of control (MET (human)): 55%; kinase still bound, per cent of control (ACVR1B (human)): 14%; kinase still bound, per cent of control (FGFR2 (human)): 76%; kinase still bound, per cent of control (BMPR1A (human)): 0.3%; kinase still bound, per cent of control (BRSK1 (human)): 18%; kinase still bound, per cent of control (MAPK7 (human)): 83%; kinase still bound, per cent of control (IGF1R (human)): 100%; kinase still bound, per cent of control (DAPK3 (human)): 4.6%; kinase still bound, per cent of control (PKN3 (M.tuberculosis)): 7.1%; kinase still bound, per cent of control (RIOK1 (human)): 29%; kinase still bound, per cent of control (MAPK14 (human)): 50%; kinase still bound, per cent of control (FLT4 (human)): 14%; kinase still bound, per cent of control (RET (human)): 20% |
| COc1ccc(N(C(=O)Oc2c(C)cccc2C)c2ccnc(Nc3ccc(N4CCN(C)CC4)cc3)n2)c(OC)c1 | 71 | 100 | 100 | 0.35 | 3.7 | 9.8 | 100 | 100 | 4 | 0.75 | 3.9 | 0.85 | 0 | 19 | 31 | 58 | 0 | 9.9 | 80 | 0 | kinase still bound, per cent of control (CAMKK1 (human)): 88%; kinase still bound, per cent of control (MAP2K3 (human)): 66%; kinase still bound, per cent of control (MAP2K5 (human)): 0.55%; kinase still bound, per cent of control (RPS6KA6 KD1 (human)): 40%; kinase still bound, per cent of control (PHKG1 (human)): 12%; kinase still bound, per cent of control (PIK3C2G (human)): 98%; kinase still bound, per cent of control (MAK (human)): 69%; kinase still bound, per cent of control (MET (human)): 3.9%; kinase still bound, per cent of control (ACVR1B (human)): 1%; kinase still bound, per cent of control (FGFR2 (human)): 0.45%; kinase still bound, per cent of control (BMPR1A (human)): 0.1%; kinase still bound, per cent of control (BRSK1 (human)): 68%; kinase still bound, per cent of control (MAPK7 (human)): 39%; kinase still bound, per cent of control (IGF1R (human)): 100%; kinase still bound, per cent of control (DAPK3 (human)): 88%; kinase still bound, per cent of control (PKN3 (M.tuberculosis)): 90%; kinase still bound, per cent of control (RIOK1 (human)): 5.8%; kinase still bound, per cent of control (MAPK14 (human)): 52%; kinase still bound, per cent of control (FLT4 (human)): 16%; kinase still bound, per cent of control (RET (human)): 0.1% |
